Patent US20250295628A1 (priority 2022, published 2025)

Legend:
[1] = Solid stability of compositions 1-11 and compounds 1A-11A: main component content over time under different conditions (Example 37, Table 32); format: physicochemical
Protocol: Compositions 1-11 and compounds 1A-11A were placed at environments of −25° C., 5±3° C., 25±2° C./60±5% RH, 40±2° C./75±5% RH, 60° C. for 0 d, 5 d and 10 d (d refers to day), respectively, and changes of the main component content (the main component content of 0 day was converted to 100%) were measured, the results are shown in Table 32.

[2] = system: chronic cadmium poisoning model rabbits; assay: Cadmium-removing effect by intravenous drip in chronic cadmium poisoning rabbits (Example 18); format: in vivo, New Zealand rabbits; settings: for Urine β2-microglobulin values: after four weeks of administration
Excerpt: 205 male New Zealand rabbits, 1.8˜2.2 kg, were randomly divided into a blank control group with 25 rabbits and chronic cadmium poisoning groups with a total of 180 rabbits. The model rabbits were ear margin intravenous injected with a mixed solution containing 1.5 μmol/kg CdCl2 and 30 μmol/kg thioethanol (ME) according to weight, once/d for continuous 5 days, and observed for 35 days. After 35 days, qualified rabbits were selected according to weight, including 18 rabbits in the blank group and 162 rabbits in the poisoning group. The 162 rabbits in the poisoning group were randomly divided into a model group, D3 high-dose group, D3 low-dose group, compound 3B high-dose group, compound 3B low-dose group, composition 3 high-dose group, composition 3 low-dose group, composition 3-powder injection high-dose group, composition 3-powder injection low-dose group, with 18 rabbits in each group. Rabbits in the mode group and the blank group were administered by intravenous drip with the same volume of normal saline, with a rate of 30 drops/min for a dripping time of about 2 h, 1 time/d, 5 d/week. After administration on the last day of week 1, week 2 and week 4, the urine of 0 h˜6 h and the urine of 7 h˜24 h of rabbits were respectively collected; the content of cadmium in blood, urine and kidney, and the cadmium-removing rate from blood and kidney were determined, and the results are shown in Table 6.

[3] = 5 ± 3° C., 0 d (0 day content converted to 100%)
[4] = 25 ± 2° C./60 ± 5% RH, 0 d (0 day content converted to 100%)
[5] = 40 ± 2° C./75 ± 5% RH, 0 d (0 day content converted to 100%)
[6] = 60° C., 0 d (0 day content converted to 100%)
[7] = −25° C., 0 d (0 day content converted to 100%)
[8] = 1 w of treatment, high-dose group (D3 433, compound 3B 83.5, composition 3 and composition 3-preparation 108 mg/kg)
[9] = 1 w of treatment, low-dose group (D3 108, compound 3B 21, composition 3 and composition 3-preparation 27 mg/kg)
[10] = 2 w of treatment, high-dose group (D3 433, compound 3B 83.5, composition 3 and composition 3-preparation 108 mg/kg)
[11] = 2 w of treatment, low-dose group (D3 108, compound 3B 21, composition 3 and composition 3-preparation 27 mg/kg)
[12] = 4 w of treatment, high-dose group (D3 433, compound 3B 83.5, composition 3 and composition 3-preparation 108 mg/kg)
[13] = 4 w of treatment, low-dose group (D3 108, compound 3B 21, composition 3 and composition 3-preparation 27 mg/kg)

CC(C)C(C(=O)[O-])N(CC(O)C(O)C(O)C(O)CO)C(=S)[S][Na].[Na+] (stereo not drawn) [Compound 2A]
main component content [1, 3]: 100%
main component content ([1]; 5 ± 3° C., 5 d): 99.5%
main component content ([1]; 5 ± 3° C., 10 d): 98.1%
main component content [1, 4]: 100%
main component content ([1]; 25 ± 2° C./60 ± 5% RH, 5 d): 91.4%
main component content ([1]; 25 ± 2° C./60 ± 5% RH, 10 d): 82.5%
main component content [1, 5]: 100%
main component content ([1]; 40 ± 2° C./75 ± 5% RH, 5 d): 94.1%
main component content ([1]; 40 ± 2° C./75 ± 5% RH, 10 d): 90.1%
main component content [1, 6]: 100%
main component content ([1]; 60° C., 5 d): 49.9%
main component content ([1]; 60° C., 10 d): 48.8%
main component content [1, 7]: 100%
main component content ([1]; −25° C., 5 d): 100.2%
main component content ([1]; −25° C., 10 d): 99.8%

O=C([O-])CCC(C(=O)[O-])N(CC(O)C(O)C(O)C(O)CO)C(=S)[S][Na].[Na+].[Na+] (stereo not drawn) [Compound 5A]
main component content [1, 3]: 100%
main component content ([1]; 5 ± 3° C., 5 d): 99.6%
main component content ([1]; 5 ± 3° C., 10 d): 98.7%
main component content [1, 4]: 100%
main component content ([1]; 25 ± 2° C./60 ± 5% RH, 5 d): 97.8%
main component content ([1]; 25 ± 2° C./60 ± 5% RH, 10 d): 95.7%
main component content [1, 5]: 100%
main component content ([1]; 40 ± 2° C./75 ± 5% RH, 5 d): 97.9%
main component content ([1]; 40 ± 2° C./75 ± 5% RH, 10 d): 91.8%
main component content [1, 6]: 100%
main component content ([1]; 60° C., 5 d): 80.3%
main component content ([1]; 60° C., 10 d): 78.7%
main component content [1, 7]: 100%
main component content ([1]; −25° C., 5 d): 100.7%
main component content ([1]; −25° C., 10 d): 101.1%

O=C([O-])C(CF)N(CC(O)C(O)C(O)C(O)CO)C(=S)[S][Na].[Na+] (stereo not drawn) [Compound 1A]
main component content [1, 3]: 100%
main component content ([1]; 5 ± 3° C., 5 d): 99.5%
main component content ([1]; 5 ± 3° C., 10 d): 99.1%
main component content [1, 4]: 100%
main component content ([1]; 25 ± 2° C./60 ± 5% RH, 5 d): 97.3%
main component content ([1]; 25 ± 2° C./60 ± 5% RH, 10 d): 92.1%
main component content [1, 5]: 100%
main component content ([1]; 40 ± 2° C./75 ± 5% RH, 5 d): 83.5%
main component content ([1]; 40 ± 2° C./75 ± 5% RH, 10 d): 81.5%
main component content [1, 6]: 100%
main component content ([1]; 60° C., 5 d): 59.4%
main component content ([1]; 60° C., 10 d): 58.7%
main component content [1, 7]: 100%
main component content ([1]; −25° C., 5 d): 100.2%
main component content ([1]; −25° C., 10 d): 100.1%

CSCCC(NCC(O)C(O)C(O)C(O)CO)C(=O)[O-].[Na+] (stereo not drawn) [Compound 3B]
Cadmium in blood [2, 8]: 101.54 ± 13.27 µg/L
Cadmium in kidney [2, 8]: 11.94 ± 3.51 µg/L
Cadmium in blood [2, 9]: 102.21 ± 16.38 µg/L
Cadmium in kidney [2, 9]: 12.03 ± 3.84 µg/L
Cadmium in blood [2, 10]: 73.18 ± 15.27 µg/L
Cadmium in kidney [2, 10]: 12.62 ± 5.37 µg/L
Cadmium in blood [2, 11]: 72.02 ± 16.92 µg/L
Cadmium in kidney [2, 11]: 12.57 ± 3.37 µg/L
Cadmium in blood [2, 12]: 27.92 ± 14.72 µg/L
Cadmium in kidney [2, 12]: 14.02 ± 2.96 µg/L
Cadmium in blood [2, 13]: 28.53 ± 12.62 µg/L
Cadmium in kidney [2, 13]: 13.22 ± 4.20 µg/L
cadmium-removing effect (compared with the model group) ([2]; 21 and 83.5 mg/kg, 1-4 weeks): no cadmium-removing effect
Urine β2-microglobulin values ([2]; high-dose group (D3 433, compound 3B 83.5, composition 3 and composition 3-preparation 108 mg/kg)): 209.42 ± 38.21 ng/L
Urine β2-microglobulin values ([2]; low-dose group (D3 108, compound 3B 21, composition 3 and composition 3-preparation 27 mg/kg)): 213.56 ± 31.76 ng/L

O=C([O-])C(Cc1cncs1)N(CC(O)C(O)C(O)C(O)CO)C(=S)[S][Na].[Na+] (stereo not drawn) [Compound 9A]
main component content [1, 3]: 100%
main component content ([1]; 5 ± 3° C., 5 d): 97.2%
main component content ([1]; 5 ± 3° C., 10 d): 96.0%
main component content [1, 4]: 100%
main component content ([1]; 25 ± 2° C./60 ± 5% RH, 5 d): 98.9%
main component content ([1]; 25 ± 2° C./60 ± 5% RH, 10 d): 96.0%
main component content [1, 5]: 100%
main component content ([1]; 40 ± 2° C./75 ± 5% RH, 5 d): 92.6%
main component content ([1]; 40 ± 2° C./75 ± 5% RH, 10 d): 91.5%
main component content [1, 6]: 100%
main component content ([1]; 60° C., 5 d): 84.5%
main component content ([1]; 60° C., 10 d): 79.3%
main component content [1, 7]: 100%
main component content ([1]; −25° C., 5 d): 100.7%
main component content ([1]; −25° C., 10 d): 100.5%

O=C([O-])C(CO)N(CC(O)C(O)C(O)C(O)CO)C(=S)[S][K].[K+] (stereo not drawn) [Compound 10A]
main component content [1, 3]: 100%
main component content ([1]; 5 ± 3° C., 5 d): 99.5%
main component content ([1]; 5 ± 3° C., 10 d): 98.1%
main component content [1, 4]: 100%
main component content ([1]; 25 ± 2° C./60 ± 5% RH, 5 d): 97.0%
main component content ([1]; 25 ± 2° C./60 ± 5% RH, 10 d): 96.1%
main component content [1, 5]: 100%
main component content ([1]; 40 ± 2° C./75 ± 5% RH, 5 d): 92.0%
main component content ([1]; 40 ± 2° C./75 ± 5% RH, 10 d): 90.3%
main component content [1, 6]: 100%
main component content ([1]; 60° C., 5 d): 82.0%
main component content ([1]; 60° C., 10 d): 79.1%
main component content [1, 7]: 100%
main component content ([1]; −25° C., 5 d): 100.5%
main component content ([1]; −25° C., 10 d): 101.4%

O=C([O-])C(CCSCO)N(CC(O)C(O)C(O)C(O)CO)C(=S)[S][Na].[Na+] (stereo not drawn) [Compound 4A]
main component content [1, 3]: 100%
main component content ([1]; 5 ± 3° C., 5 d): 97.6%
main component content ([1]; 5 ± 3° C., 10 d): 95.3%
main component content [1, 4]: 100%
main component content ([1]; 25 ± 2° C./60 ± 5% RH, 5 d): 92.8%
main component content ([1]; 25 ± 2° C./60 ± 5% RH, 10 d): 91.7%
main component content [1, 5]: 100%
main component content ([1]; 40 ± 2° C./75 ± 5% RH, 5 d): 83.4%
main component content ([1]; 40 ± 2° C./75 ± 5% RH, 10 d): 80.8%
main component content [1, 6]: 100%
main component content ([1]; 60° C., 5 d): 68.0%
main component content ([1]; 60° C., 10 d): 64.7%
main component content [1, 7]: 100%
main component content ([1]; −25° C., 5 d): 100.2%
main component content ([1]; −25° C., 10 d): 100.5%

O=C([O-])C(Cc1cccs1)N(CC(O)C(O)C(O)C(O)CO)C(=S)[S][Na].[Na+] (stereo not drawn) [Compound 8A]
main component content [1, 3]: 100%
main component content ([1]; 5 ± 3° C., 5 d): 97.9%
main component content ([1]; 5 ± 3° C., 10 d): 96.2%
main component content [1, 4]: 100%
main component content ([1]; 25 ± 2° C./60 ± 5% RH, 5 d): 95.5%
main component content ([1]; 25 ± 2° C./60 ± 5% RH, 10 d): 93.3%
main component content [1, 5]: 100%
main component content ([1]; 40 ± 2° C./75 ± 5% RH, 5 d): 94.7%
main component content ([1]; 40 ± 2° C./75 ± 5% RH, 10 d): 89.6%
main component content [1, 6]: 100%
main component content ([1]; 60° C., 5 d): 80.4%
main component content ([1]; 60° C., 10 d): 79.7%
main component content [1, 7]: 100%
main component content ([1]; −25° C., 5 d): 101.1%
main component content ([1]; −25° C., 10 d): 100.3%

O=C([O-])C(CC1CCCCC1)N(CC(O)C(O)C(O)C(O)CO)C(=S)[S][Na].[Na+] (stereo not drawn) [Compound 6A]
main component content [1, 3]: 100%
main component content ([1]; 5 ± 3° C., 5 d): 98.8%
main component content ([1]; 5 ± 3° C., 10 d): 99.1%
main component content [1, 4]: 100%
main component content ([1]; 25 ± 2° C./60 ± 5% RH, 5 d): 93.1%
main component content ([1]; 25 ± 2° C./60 ± 5% RH, 10 d): 85.3%
main component content [1, 5]: 100%
main component content ([1]; 40 ± 2° C./75 ± 5% RH, 5 d): 91.5%
main component content ([1]; 40 ± 2° C./75 ± 5% RH, 10 d): 91.0%
main component content [1, 6]: 100%
main component content ([1]; 60° C., 5 d): 60.4%
main component content ([1]; 60° C., 10 d): 57.8%
main component content [1, 7]: 100%
main component content ([1]; −25° C., 5 d): 100.6%
main component content ([1]; −25° C., 10 d): 99.9%

COc1ccc(CC(C(=O)[O-])N(CC(O)C(O)C(O)C(O)CO)C(=S)[S][Na])cc1.[Na+] (stereo not drawn) [Compound 7A]
main component content [1, 3]: 100%
main component content ([1]; 5 ± 3° C., 5 d): 100.0%
main component content ([1]; 5 ± 3° C., 10 d): 99.1%
main component content [1, 4]: 100%
main component content ([1]; 25 ± 2° C./60 ± 5% RH, 5 d): 99.3%
main component content ([1]; 25 ± 2° C./60 ± 5% RH, 10 d): 98.0%
main component content [1, 5]: 100%
main component content ([1]; 40 ± 2° C./75 ± 5% RH, 5 d): 98.7%
main component content ([1]; 40 ± 2° C./75 ± 5% RH, 10 d): 96.5%
main component content [1, 6]: 100%
main component content ([1]; 60° C., 5 d): 80.2%
main component content ([1]; 60° C., 10 d): 80.1%
main component content [1, 7]: 100%
main component content ([1]; −25° C., 5 d): 100.1%
main component content ([1]; −25° C., 10 d): 100.6%
